Assay results as given in patent US20120029187A1, “HALOALKYLSULFONANILIDE DERIVATIVE” (Nissan Chemical Industries, Ltd., priority 2009, published 2012).

Legend:
Format in all cases: in vivo
bulrush [1] = assay: Test Example 2: herbicidal effects during the vegetation period under submerged conditions; conditions: treatment during the vegetation period under submerged conditions; dose 2.52 g/a
Outline: (§1)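 Barnyardgrass, bulrush and ducksalad were co-sown in alluvial soil flooded to 4 cm and grown in a greenhouse at 25 to 30° C. At the 1- or 2-leaf stage, water-diluted emulsifiable concentrates went onto the water surface at set doses (g/a). Herbicidal effect was scored three weeks later on a graded scale.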

barnyardgrass [2] = assay: as above; conditions: treatment during the vegetation period under submerged conditions; dose 2.52 g/a
Outline: as §1

ducksalad [3] = assay: as above; conditions: treatment during the vegetation period under submerged conditions; dose 2.52 g/a
Outline: as §1

transplanted rice = assay: Test Example 1: preemergence treatment under submerged conditions, effect on crop; conditions: dose 2.52 g/a
Outline: (§2)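 Alluvial soil was flooded to 4 cm, sown with barnyardgrass, bulrush and ducksalad, and planted with 2.5-leaf rice seedlings. On the seeding day, water-diluted emulsifiable concentrates were applied to the water surface at set doses (g/a). After three weeks in a 25 to 30° C. greenhouse, mortality was scored 0–5.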

bulrush [4] = assay: Test Example 1: herbicidal effects in preemergence treatment under submerged conditions; conditions: dose 2.52 g/a
Outline: as §2

barnyardgrass [5] = assay: as above; conditions: dose 2.52 g/a
Outline: as §2

ducksalad [6] = assay: as above; conditions: dose 2.52 g/a
Outline: as §2

velvetleaf [7] = assay: Test Example 3: herbicidal effects in soil treatment; conditions: dose 3.2 g/a
Outline: (§3)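 Seeds were sown in sterilized diluvial soil and covered with about 1.5 cm of soil. Compounds, formulated as emulsifiable concentrates and diluted with water, were sprayed evenly over the soil surface at set doses in g/a. Herbicidal effect was scored on a rating scale three weeks later.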

barnyardgrass [8] = assay: as above; conditions: dose 3.2 g/a
Outline: as §3

common lambsquater [9] = assay: as above; conditions: dose 3.2 g/a
Outline: as §3

beadstraw [10] = assay: as above; conditions: dose 3.2 g/a
Outline: as §3

wild oat [11] = assay: as above; conditions: dose 3.2 g/a
Outline: as §3

giant foxtail [12] = assay: as above; conditions: dose 3.2 g/a
Outline: as §3

common chickweed [13] = assay: as above; conditions: dose 3.2 g/a
Outline: as §3

redroot pigweed [14] = assay: as above; conditions: dose 3.2 g/a
Outline: as §3

common ragweed [15] = assay: as above; conditions: dose 3.2 g/a
Outline: as §3

Italian ryegrass [16] = assay: as above; conditions: dose 3.2 g/a
Outline: as §3

posumbu knotweed [17] = assay: as above; conditions: dose 3.2 g/a
Outline: as §3

large crabgrass [18] = assay: as above; conditions: dose 3.2 g/a
Outline: as §3

water foxtail [19] = assay: as above; conditions: dose 3.2 g/a
Outline: as §3

velvetleaf [20] = assay: Test Example 4: herbicidal effect in foliage treatment; conditions: dose 3.2 g/a, three weeks after application
Outline: (§4)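 A uniform foliar spray of emulsifiable concentrate, diluted with water to give the stated g/a dose, was applied to plants raised for 14 days from seed in sterilized diluvial soil at 25 to 30° C. Herbicidal effects were scored three weeks later.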

barnyardgrass [21] = assay: as above; conditions: dose 3.2 g/a, three weeks after application
Outline: as §4

common lambsquater [22] = assay: as above; conditions: dose 3.2 g/a, three weeks after application
Outline: as §4

beadstraw [23] = assay: as above; conditions: dose 3.2 g/a, three weeks after application
Outline: as §4

wild oat [24] = assay: as above; conditions: dose 3.2 g/a, three weeks after application
Outline: as §4

giant foxtail [25] = assay: as above; conditions: dose 3.2 g/a, three weeks after application
Outline: as §4

common chickweed [26] = assay: as above; conditions: dose 3.2 g/a, three weeks after application
Outline: as §4

redroot pigweed [27] = assay: as above; conditions: dose 3.2 g/a, three weeks after application
Outline: as §4

common ragweed [28] = assay: as above; conditions: dose 3.2 g/a, three weeks after application
Outline: as §4

Italian ryegrass [29] = assay: as above; conditions: dose 3.2 g/a, three weeks after application
Outline: as §4

posumbu knotweed [30] = assay: as above; conditions: dose 3.2 g/a, three weeks after application
Outline: as §4

large crabgrass [31] = assay: as above; conditions: dose 3.2 g/a, three weeks after application
Outline: as §4

water foxtail [32] = assay: as above; conditions: dose 3.2 g/a, three weeks after application
Outline: as §4

Compound | B: bulrush, herbicidal effect (evaluation scale 0-5) (bulrush [1]) | A: barnyardgrass, herbicidal effect (evaluation scale 0-5) (barnyardgrass [2]) | C: ducksalad, herbicidal effect (evaluation scale 0-5) (ducksalad [3]) | a: transplanted rice, effect on crop (evaluation scale 0-5) (transplanted rice) | B: bulrush, herbicidal effect (evaluation scale 0-5) (bulrush [4]) | A: barnyardgrass, herbicidal effect (evaluation scale 0-5) (barnyardgrass [5]) | C: ducksalad, herbicidal effect (evaluation scale 0-5) (ducksalad [6]) | I: velvetleaf, herbicidal effect (evaluation scale 0-5) (velvetleaf [7]) | A: barnyardgrass, herbicidal effect (evaluation scale 0-5) (barnyardgrass [8]) | L: common lambsquater, herbicidal effect (evaluation scale 0-5) (common lambsquater [9]) | O: beadstraw, herbicidal effect (evaluation scale 0-5) (beadstraw [10]) | F: wild oat, herbicidal effect (evaluation scale 0-5) (wild oat [11]) | E: giant foxtail, herbicidal effect (evaluation scale 0-5) (giant foxtail [12]) | N: common chickweed, herbicidal effect (evaluation scale 0-5) (common chickweed [13]) | K: redroot pigweed, herbicidal effect (evaluation scale 0-5) (redroot pigweed [14]) | J: common ragweed, herbicidal effect (evaluation scale 0-5) (common ragweed [15]) | H: Italian ryegrass, herbicidal effect (evaluation scale 0-5) (Italian ryegrass [16]) | M: posumbu knotweed, herbicidal effect (evaluation scale 0-5) (posumbu knotweed [17]) | D: large crabgrass, herbicidal effect (evaluation scale 0-5) (large crabgrass [18]) | G: water foxtail, herbicidal effect (evaluation scale 0-5) (water foxtail [19]) | also measured
CC(C)COC(=O)N(c1ccccc1CN1COC(C)(C)C(F)C1=O)S(=O)(=O)C(F)(F)F (stereo not drawn) [II-36] | 5 (mortality of 90% or above (nearly complete death)) | 5 (mortality of 90% or above (nearly complete death)) | 5 (mortality of 90% or above (nearly complete death)) | 0 (mortality of less than 5% (almost ineffective)) | 5 (mortality of 90% or above (nearly complete death)) | 5 (mortality of 90% or above (nearly complete death)) | 5 (mortality of 90% or above (nearly complete death)) | 3 (mortality of at least 40% and less than 70%) | 5 (mortality of 90% or above (nearly complete death)) | 0 (mortality of less than 5% (almost ineffective)) | 4 (mortality of at least 70% and less than 90%) | 0 (mortality of less than 5% (almost ineffective)) | 3 (mortality of at least 40% and less than 70%) | 4 (mortality of at least 70% and less than 90%) | 0 (mortality of less than 5% (almost ineffective)) | 4 (mortality of at least 70% and less than 90%) | 0 (mortality of less than 5% (almost ineffective)) | 4 (mortality of at least 70% and less than 90%) | 4 (mortality of at least 70% and less than 90%) | 5 (mortality of 90% or above (nearly complete death)) | I: velvetleaf, herbicidal effect (velvetleaf [20]): 2 (mortality of at least 20% and less than 40%); A: barnyardgrass, herbicidal effect (barnyardgrass [21]): 5 (mortality of 90% or above (nearly complete death)); L: common lambsquater, herbicidal effect (common lambsquater [22]): 1 (mortality of at least 5% and less than 20%); O: beadstraw, herbicidal effect (beadstraw [23]): 3 (mortality of at least 40% and less than 70%); F: wild oat, herbicidal effect (wild oat [24]): 0 (mortality of less than 5% (almost ineffective)); E: giant foxtail, herbicidal effect (giant foxtail [25]): 3 (mortality of at least 40% and less than 70%); N: common chickweed, herbicidal effect (common chickweed [26]): 3 (mortality of at least 40% and less than 70%); K: redroot pigweed, herbicidal effect (redroot pigweed [27]): 0 (mortality of less than 5% (almost ineffective)); J: common ragweed, herbicidal effect (common ragweed [28]): 3 (mortality of at least 40% and less than 70%); H: Italian ryegrass, herbicidal effect (Italian ryegrass [29]): 2 (mortality of at least 20% and less than 40%); M: posumbu knotweed, herbicidal effect (posumbu knotweed [30]): 2 (mortality of at least 20% and less than 40%); D: large crabgrass, herbicidal effect (large crabgrass [31]): 4 (mortality of at least 70% and less than 90%); G: water foxtail, herbicidal effect (water foxtail [32]): 4 (mortality of at least 70% and less than 90%)
CC1(C)OCN(Cc2ccccc2N(S(=O)(=O)C(F)(F)F)S(=O)(=O)C(F)(F)F)C(=O)C1F (stereo not drawn) [II-37] | 5 (mortality of 90% or above (nearly complete death)) | 5 (mortality of 90% or above (nearly complete death)) | 5 (mortality of 90% or above (nearly complete death)) | 2 (mortality of at least 20% and less than 40%) | 5 (mortality of 90% or above (nearly complete death)) | 5 (mortality of 90% or above (nearly complete death)) | 5 (mortality of 90% or above (nearly complete death)) | 0 (mortality of less than 5% (almost ineffective)) | 5 (mortality of 90% or above (nearly complete death)) | 0 (mortality of less than 5% (almost ineffective)) | 4 (mortality of at least 70% and less than 90%) | 4 (mortality of at least 70% and less than 90%) | 3 (mortality of at least 40% and less than 70%) | 2 (mortality of at least 20% and less than 40%) | 3 (mortality of at least 40% and less than 70%) | 5 (mortality of 90% or above (nearly complete death)) | 0 (mortality of less than 5% (almost ineffective)) | 0 (mortality of less than 5% (almost ineffective)) | 5 (mortality of 90% or above (nearly complete death)) | 5 (mortality of 90% or above (nearly complete death)) | I: velvetleaf, herbicidal effect (velvetleaf [20]): 3 (mortality of at least 40% and less than 70%); A: barnyardgrass, herbicidal effect (barnyardgrass [21]): 5 (mortality of 90% or above (nearly complete death)); L: common lambsquater, herbicidal effect (common lambsquater [22]): 2 (mortality of at least 20% and less than 40%); O: beadstraw, herbicidal effect (beadstraw [23]): 4 (mortality of at least 70% and less than 90%); F: wild oat, herbicidal effect (wild oat [24]): 1 (mortality of at least 5% and less than 20%); E: giant foxtail, herbicidal effect (giant foxtail [25]): 3 (mortality of at least 40% and less than 70%); N: common chickweed, herbicidal effect (common chickweed [26]): 4 (mortality of at least 70% and less than 90%); K: redroot pigweed, herbicidal effect (redroot pigweed [27]): 2 (mortality of at least 20% and less than 40%); J: common ragweed, herbicidal effect (common ragweed [28]): 4 (mortality of at least 70% and less than 90%); H: Italian ryegrass, herbicidal effect (Italian ryegrass [29]): 3 (mortality of at least 40% and less than 70%); M: posumbu knotweed, herbicidal effect (posumbu knotweed [30]): 3 (mortality of at least 40% and less than 70%); D: large crabgrass, herbicidal effect (large crabgrass [31]): 4 (mortality of at least 70% and less than 90%); G: water foxtail, herbicidal effect (water foxtail [32]): 5 (mortality of 90% or above (nearly complete death))
